Laboratory results: patent US12629370B2, “Treatment of prostate cancer” (Sumitomo Pharma Co., Ltd., priority 2016, dated 2026)
Several values for one entry are separate records, joined by “and”; a condition that tells them apart may be missing. Equal values may be shown once.

Key:
serum PSA = test: Example 6: serum PSA (CLEIA); assay type: in vivo, human
Procedure: This study consisted of two parts: Part A, a dose-rising phase, and Part B, an expansion phase. Whether or not the study would proceed to the next cohort or to Part B was determined through assessment of tolerability at the present dose, based on the incidence of adverse effects during the evaluation period.
Subjects in Cohort 1 received a load dose of 320 mg and a maintenance dose of 80 mg; subjects in Cohort 2 received a load dose of 320 mg and a maintenance dose of 120 mg; subjects in Cohort 3 received a load dose of 320 mg and a maintenance dose of 160 mg; and subjects in Cohort 4 received a load dose of 360 mg and a maintenance dose of 120 mg.
In addition to the safety assessments, efficacy assessments were also performed according to the study schedule, and the Compound 1 formulation was administered until each subject met the discontinuation criteria.

LH = test: Example 9: LH; assay type: in vivo, human
Procedure: Eligible male patients were aged ≥18 years with a histologically confirmed diagnosis of localized, intermediate-risk prostate cancer, for whom 6-month neoadjuvant and adjuvant androgen deprivation therapy (ADT) to external beam radiation therapy (EBRT) was indicated. The criteria for establishing intermediate-risk prostate cancer included the presence of one of the following, without any high-risk feature: T2b-T2c disease, Gleason score 7, or prostate-specific antigen (PSA) 10-20 ng/mL. […] Based on investigator discretion and clinical assessment of the patient's overall medical and disease status, participation was allowed for older patients with high-risk disease (e.g., based on Gleason score or tumor status) who were deemed likely to benefit from 6 months of neoadjuvant/adjuvant ADT.
Both treatment arms received treatment for 24 weeks. […] EBRT began no later than day 1, week 17.
Patients were evaluated every 4 weeks during the treatment period (including day 1, week 25), at end of treatment (defined as week 29), during follow-up (week 33), and at end of study (EOS).
Samples for testosterone, luteinizing hormone (LH), FSH, and PSA concentrations were taken at screening, on day 1 of the first week (additionally days 2 and 4 for testosterone and LH), and on day 1 of weeks 2, 3, 5, 9, 13, 17, 21, 25, 29, 33, and 37 thereafter.

serum testosterone [1] = test: Example 6: serum testosterone (CLIA) in men with non-metastatic prostate cancer, Parts A and B; assay type: in vivo, human
FSH = test: Example 8: FSH levels; assay type: in vivo, human;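 further: FSH determined at every study visit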
Procedure: Patients on leuprorelin received their final injection at week 37, day 1, and the week 49, day 1 visit was considered the end of leuprorelin exposure. Patients receiving leuprorelin at visits at 16 (EOT), 20 (follow-up visit), and 24 (EOS) weeks after the last leuprorelin injection.
FSH levels were also measured at each visit.

serum DHT = test: Example 7: serum DHT in healthy men; assay type: in vivo, human
Procedure: (§1) FSH, DHT, and insulin-like growth factor 1 (IGF-1; Parts 3 and 4 only) were measured in a subset of samples. Serum testosterone was assayed using a conventional immunoassay for screening (LLOQ=0.4 nmol/L). A validated LC/MS/MS method, with an LLOQ of 0.173 nmol/L and a ULOQ of 10.425 nmol/L, was used for all subsequent baseline (i.e., the subject's serum hormone levels prior to treatment commencing) and postdose measurements.

serum LH = test: Example 7: serum LH in healthy men; assay type: in vivo, human
Procedure: as §1

[2] = Example 7: serum testosterone lowering in healthy men; assay type: in vivo; settings: male, human, plasma, oral, maintenance doses of 80 mg or greater
serum testosterone [3] = test: as above; assay type: in vivo, human; settings: for mean serum testosterone at end of 16 days: baseline 10.40 nmol/L
Procedure: as §1
Pharmacodynamic measures included serum concentrations of testosterone, DHT, LH, and FSH. In Part 2, the number and percentage of subjects with average serum testosterone levels less than 0.69 nmol/L occurring during the second week of dosing were tabulated. In Parts 3 and 4, the number and percentage of subjects with serum testosterone levels consistently less than 0.69 nmol/L from Day 14 through Day 28 were tabulated.

[4] = Part A Day 28, Cohort 1 (320 mg load, 80 mg QD)
[5] = Part A Day 28, Cohort 2 (320 mg load, 120 mg QD)
[6] = Part A Day 28, Cohort 3 (320 mg load, 160 mg QD)
[7] = Part B Week 13 Day 1 (LOCF), 120 mg group
[8] = Compound 1 Total, Week 2, Day 1
[9] = Compound 1 Total, Week 5, Day 1
[10] = Compound 1 Total, Week 13, Day 1
[11] = Compound 1 Total, Week 25, Day 1
[12] = Compound 1 Total, Week 49, Day 1

For `CONC(=O)Nc1ccc(-c2sc3c(c2CN(C)C)c(=O)n(-c2ccc(OC)nn2)c(=O)n3Cc2c(F)cccc2F)cc1` [Compound 1, N-(4-(1-(2,6-difluorobenzyl)-5-((dimethylamino)methyl)-3-(6-methoxy-3-pyridazinyl)-2,4-dioxo-1,2,3,4-tetrahydrothieno[2,3-d]pyrimidin-6-yl)phenyl)-N′-methoxyurea], the “CLr (L/h)” value (FIG. 20) was 7.57 (13.4) L/h and 8.11 (12.7) L/h and 9.24 (10.0) L/h and 8.64 (10.8) L/h, the “Fe (%)” value (FIG. 20) was 2.95 (41.5) % and 2.05 (33.4) % and 1.46 (38.7) % and the “t1/2(h)” value (FIG. 20) was 20.8 (5.2) h and 21.3 (20.0) h and 21.7 (8.9) h. For the same compound, the “mean percentage change from baseline in serum PSA” value (“mean percentage change” below) (serum PSA; [4]) was −76.37%, the “median percentage change from baseline in serum PSA” value (“median percentage change” below) (serum PSA; [4]) was −77.50% and the “mean percentage change” value (serum PSA; [5]) was −60.10%. The “median percentage change” value (serum PSA; [5]) was −72.30%, the “mean percentage change” value (serum PSA; [6]) was −32.10% and the “median percentage change” value (serum PSA; [6]) was −50.50%. For the same compound, the “median percentage change” value (serum PSA; Part B Week 13 Day 1 (LOCF), 80 mg group) was −97.20%, the “mean percentage change” value (serum PSA; [7]) was −93.11% and the “median percentage change” value (serum PSA; [7]) was −95.80%. The “Median LH” value (LH; Baseline) was 4.7 mlU/mL, the “Median LH” value (LH; Week 24) was 0.1 mlU/mL and the “mean LH level” value (LH; Week 25, Day 1) was 0.325 IU/L. For the same compound, the “Median LH” value (LH; Week 28/EOT visit) was 3.1 mlU/mL, the “Median LH” value (LH; Week 32/follow-up) was 8.3 mlU/mL and the “Median LH” value (LH; Week 36/EOS) was 10.7 mlU/mL. For the same compound, the “time for mean serum testosterone to fall below medical castration levels (below 50 ng/dL)” value (serum testosterone [1]; Part A, load dose then maintenance 80, 120 or 160 mg QD) was “up to 3 days”, the “when serum testosterone achieved medical castration levels in all subjects” value (serum testosterone [1]; Part A, maintained up to 3 days after last dose on Day 28) was “between Day 2 and Day 14” and the “time for mean serum testosterone to be suppressed below medical castration levels (below 50 ng/dL)” value (serum testosterone [1]; Part B, 320 mg load then 80 or 120 mg QD) was ≤ 4 days. For the same compound, the “when serum testosterone reached medical castration levels in all subjects” value (serum testosterone [1]; Part B, maintained throughout evaluation period) was “between Day 2 and Week 3”, the “FSH Mean (Std Dev)” value (FSH; 80 mg QD, Baseline) was 14.729 (14.3473) IU/L and the “FSH Median” value (FSH; 80 mg QD, Baseline) was 9.550 IU/L. The “FSH Mean (Std Dev)” value (FSH; 80 mg QD, Week 2, Day 1) was 3.112 (3.0612) IU/L, the “FSH Median” value (FSH; 80 mg QD, Week 2, Day 1) was 2.100 IU/L and the “FSH Mean (Std Dev)” value (FSH; 80 mg QD, Week 5, Day 1) was 1.248 (2.6737) IU/L. For the same compound, the “FSH Median” value (FSH; 80 mg QD, Week 5, Day 1) was 0.400 IU/L, the “FSH Mean (Std Dev)” value (FSH; 80 mg QD, Week 13, Day 1) was 1.137 (2.4242) IU/L and the “FSH Median” value (FSH; 80 mg QD, Week 13, Day 1) was 0.500 IU/L. The “FSH Mean (Std Dev)” value (FSH; 80 mg QD, Week 25, Day 1) was 1.090 (0.9932) IU/L, the “FSH Median” value (FSH; 80 mg QD, Week 25, Day 1) was 0.800 IU/L and the “FSH Mean (Std Dev)” value (FSH; 80 mg QD, Week 49, Day 1) was 1.802 (1.3956) IU/L. The “FSH Median” value (FSH; 80 mg QD, Week 49, Day 1) was 1.450 IU/L, the “FSH Median” value (FSH; 120 mg QD, Baseline) was 11.050 IU/L and the “FSH Mean (Std Dev)” value (FSH; 120 mg QD, Week 2, Day 1) was 3.183 (2.8956) IU/L. For the same compound, the “FSH Median” value (FSH; 120 mg QD, Week 2, Day 1) was 2.300 IU/L, the “FSH Mean (Std Dev)” value (FSH; 120 mg QD, Week 5, Day 1) was 1.035 (1.0479) IU/L and the “FSH Median” value (FSH; 120 mg QD, Week 5, Day 1) was 0.600 IU/L. For the same compound, the “FSH Mean (Std Dev)” value (FSH; 120 mg QD, Week 13, Day 1) was 0.908 (0.8104) IU/L, the “FSH Median” value (FSH; 120 mg QD, Week 13, Day 1) was 0.600 IU/L and the “FSH Mean (Std Dev)” value (FSH; 120 mg QD, Week 25, Day 1) was 1.344 (0.9675) IU/L. For the same compound, the “FSH Median” value (FSH; 120 mg QD, Week 25, Day 1) was 1.200 IU/L, the “FSH Mean (Std Dev)” value (FSH; 120 mg QD, Week 49, Day 1) was 1.938 (1.2169) IU/L and the “FSH Median” value (FSH; 120 mg QD, Week 49, Day 1) was 1.600 IU/L. For the same compound, the “FSH range over the course of 48 weeks” value (FSH; 120 mg dose, >10 mIU/mL at baseline) was 0.6-1.6 mIU/mL, the “FSH Mean (Std Dev)” value (FSH; Compound 1 Total, Baseline) was 15.269 (13.5920) IU/L and the “FSH Median” value (FSH; Compound 1 Total, Baseline) was 9.850 IU/L. For the same compound, the “FSH Mean (Std Dev)” value (FSH; [8]) was 3.147 (2.9653) IU/L, the “FSH Median” value (FSH; [8]) was 2.150 IU/L and the “FSH Mean (Std Dev)” value (FSH; [9]) was 1.143 (2.0379) IU/L. The “FSH Median” value (FSH; [9]) was 0.550 IU/L, the “FSH Mean (Std Dev)” value (FSH; [10]) was 1.025 (1.8164) IU/L and the “FSH Median” value (FSH; [10]) was 0.500 IU/L. For the same compound, the “FSH Mean (Std Dev)” value (FSH; [11]) was 1.215 (0.9838) IU/L, the “FSH Median” value (FSH; [11]) was 0.900 IU/L and the “FSH Mean (Std Dev)” value (FSH; [12]) was 1.867 (1.3077) IU/L. For the same compound, the “FSH Median” value (FSH; [12]) was 1.500 IU/L, the “median FSH” value (FSH; after 48 weeks of treatment) was 1.62 mIU/mL and the “time postdose at which mean serum DHT began to decrease” value (serum DHT; Part 1 single doses 80-360 mg) was 2 h. The “mean serum dihydrotestosterone at end of 16 days” value (serum DHT; Part 2, 80 mg, baseline 1.883 nmol/L) was 1.095 nmol/L, the “mean serum dihydrotestosterone at end of 16 days” value (serum DHT; Part 2, 180 mg, baseline 1.882 nmol/L) was 0.865 nmol/L and the “mean serum LH at end of 16 days” value (serum LH; Part 2, 80 mg, baseline 4.57 IU/L) was 0.33 IU/L. For the same compound, the “mean serum LH at end of 16 days” value (serum LH; Part 2, 180 mg, baseline 3.90 IU/L) was 0.23 IU/L, the concentration at 28 days [2] was > 4 ng/mL and the “suppression of serum LH and testosterone during the second week” value (serum testosterone [3]; 20 mg QD, 14 days) was “insufficient in maintaining adequate suppression”. The castration outcome (serum testosterone [3]; 40 mg QD, 28 days) was “ineffective in maintaining castration between Days 14 and 28”, the castration outcome (serum testosterone [3]; 60 mg QD, 28 days) was “intermediate to those of 40 and 80 mg” and the “time to reach castrate level” value (serum testosterone [3]; 80 mg once daily) was “up to 21 days”. The castration outcome (serum testosterone [3]; 320 mg day 1, 160 mg day 2, 40 mg day 3 to 28) was “did not maintain castrate level”, the castration outcome (serum testosterone [3]; 360 mg Day 1 and 40 mg day 2 to 14) was “rapid castration level and sustained castration level” and the “time to castrate levels (<50 ng/dL)” value (serum testosterone [3]; 360 mg single dose) was ≤ 24 h. The effective medical castration (serum testosterone [3]; 40 to 180 mg daily (14 days) and 80 to 160 mg daily (28 days)) was “consistently achieved”, the “profound castration threshold (average serum testosterone <0.69 nmol/L)” value (serum testosterone [3]; 14 days at 40, 80 and 180 mg) was “achieved” and the “castration during third and fourth weeks” value (serum testosterone [3]; 28 days, 160 mg (Part 3) and 80 mg (Part 4)) was “effective at achieving medical (<1.73 nmol/L) and profound (<0.69 nmol/L) castration”. The “mean serum testosterone at end of 16 days” value (serum testosterone [3]; Part 2, 80 mg) was 0.3565 nmol/L, the “mean serum testosterone at end of 16 days” value (serum testosterone [3]; Part 2, 180 mg) was 0.4320 nmol/L and the “minimal fully effective / recommended maintenance dose for sustained medical castration” value (serum testosterone [3]; in vivo) was ≥ 80 mg QD. For the same compound, the effective medical castration (serum testosterone [3]; maintenance doses of 80, 160 and 180 mg QD) was “consistently achieved” and the “duration of mean serum testosterone suppression” value (serum testosterone [3]; single doses of 80, 120, 180 and 360 mg) was “maintained through 36 hours postdose”.
